Measured values reported in paper PMC8118404, “Synergistic effect of the anti-PD-1 antibody with blood stable and reduction sensitive curcumin micelles on colon cancer” (Drug Delivery, 2021).

What was measured:
MC-38 colon tumor = test system: MC-38 colon tumor; parameters: method as in our previous research (data not shown); settings: in vivo; ref our previous research (data not shown); cited from earlier work
[1] = Pharmacokinetics after i.v. administration in SD rats; format: in vivo; settings: Sprague-Dawley, rat, plasma, iv
Procedure: Nine SD rats were randomly divided into three groups (three rats for each group), receiving s-Cur, Cur/NCMs, and Cur/DCMs. Following the intravenous (i.v.) administration of the three curcumin formulations (20 mg/kg), 0.1 mL of the blood samples was collected from the tail vein at predetermined time intervals. The blood samples were centrifuged for 6 min at 5867×g to obtain the plasma. Then, the curcumin concentrations in the plasma were analyzed using a liquid chromatography mass spectrometer (LCMS-2020) equipped with a Shimadzu UV-visible spectrophotometer (Columbia, MD). The detection limitation of the equipment was 1 ng/mL. We employed the non-compartmental analysis in WinNonlin software V6.2.1 to calculate major pharmacokinetic parameters.

[2] = In vitro release of curcumin by dynamic dialysis method; format: physicochemical; settings: 20% SDS release medium, 37 °C
Procedure: In order to evaluate the crosslinking effect, in vitro release profiles of curcumin from DMSO (s-Cur), Cur/NCMs, and Cur/DCMs were studied by dynamic dialysis method with 20% SDS solution as release medium. Lyophilized micelles were reconstituted and diluted to 1 mg/mL of curcumin with PBS (0.1 M, pH 7.4) then placed 1 mL into dialysis tube (MWCO 8000–14,000 Da). The tubes were dialyzed against 50 mL release medium at 37 ± 0.5 °C at a stirring speed of 100 rpm with or without 10 mM GSH. At predetermined time intervals, 1 mL of release medium was withdrawn and replenished with an equal volume of the fresh medium. The amount of curcumin released was determined by HPLC analysis as mentioned above. Cumulative release of curcumin was then calculated. The in vitro release studies were carried out in triplicate.

p-MEK1/2 and p-Erk1/2 = assay: Western blot assay of p-MEK1/2 and p-Erk1/2 in MC-38 cells; format: cell-based, Murine; settings: 10 h
Procedure: MC38 cells were lysed using whole protein extraction kit (KeyGEN BioTECH, Nanjing, China, KGP250). Protein concentration was determined using bicinchoninic acid (BCA) protein assay (KeyGEN BioTECH, Nanjing, China, KGPBCA). Protein extracts were electrophoresed in 10% SDS-PAGE and transferred to a nitrocellulose filter (NC) membrane, blocked by 5% skim milk at room temperature for 1 h, which was prepared in Tris-buffered saline with tween 20 (TBST). Then, the membranes were immunoblotted by primary antibodies. For detection, HRP-conjugated secondary antibodies (Ray Antibody Biotech, Beijing, China, RM2001L) and chemiluminescent HRP substrate kit (EpiZyme, Shanghai, China, SQ2O2) were used. As the molecular weight of the target bands is similar, the western blot fast stripping buffer (EpiZyme, Shanghai, China, PS107) was used. The following primary antibodies were used: anti-p-MEK1/2 (Cell Signaling Technology (CST), 41G9, Boston, MA), anti-p-Erk1/2 (CST, 197G2). The blots were quantified using ImageJ (National Institutes of Health, Bethesda, MD) and normalized to the control group.

MC-38 cells = assay: In vitro cytotoxicity, CCK-8 assay; format: cell-based, Murine; settings: Mus musculus, 72 h, curcumin concentration
Procedure: The cytotoxicity of s-Cur, Cur/NCMs, and Cur/DCMs against MC-38 cells was determined by a CCK-8 assay. Briefly, MC-38 cells were cultured in RPMI1640 medium with 10% FBS, penicillin (100 U/mL), and streptomycin (100 µg/mL) for 24 h. Then, the cells were seeded in 96-well plates (Corning, NY) at 10,000 cells/well in 100 µL medium. After incubation for 24 h, the cells were exposed to s-Cur and equivalent amount of Cur/NCMs and Cur/DCMs to yield final curcumin concentrations from 0 to 65 µg/mL. For GSH triggered release experiments, adherent cells were incubated with 10 mM glutathione monoethyl ester (GSH-OEt) for 2 h before exposure to the curcumin formulations.
After incubation for 72 h, 10 μL CCK8 solution with 100 μL growth medium was added into each well and the cells were incubated for another 1 h. Then, the culture medium was added with 10 μL 1% SDS (dissolve 0.1 g SDS with PBS to obtain 10 mL solution) to stop the reaction, and reading on a Synergy HTX multi-mode reader (BioTek, Winooski, VT) at 450 nm. The cytotoxicity assay was performed in triplicate and the cell viability (%) was calculated with the following equation: (3) Cell viability=At−AB/Ac−AB×100% where At is the absorption value of samples, Ac is the absorption value of the control group, and AB is the absorption value of the blank group. […]

COc1cc(C=CC(=O)CC(=O)C=Cc2ccc(O)c(OC)c2)ccc1O [s-Cur, 1,7-bis(4-hydroxy-3-methoxyphenyl)-1,6-heptadiene-3,5-dione]
enhancement of the antitumor effects of anti-PD-1 (MC-38 colon tumor): not to be able to significantly enhance the antitumor effects of anti-PD-1
concentration at 12 h ([1]; i.v. 20 mg/kg, after 12 h (detection limit), read-out: plasma curcumin level): < 1 ng/mL
concentration at 30 min ([1]; i.v. 20 mg/kg, within 30 min, read-out: plasma curcumin level): < 100 ng/mL
AUC(0-inf) ([1]; single dosage 20 mg/kg): 1970 ng·h/mL
AUC(0-t) ([1]; single dosage 20 mg/kg): 1960 ng·h/mL
Cmax ([1]; single dosage 20 mg/kg): 7120 ng/mL
half-life ([1]; single dosage 20 mg/kg): 83.4 min
clearance ([1]; single dosage 20 mg/kg, read-out: CLz (converted)): 170 mL/min/kg
MRT last ([1]; single dosage 20 mg/kg, read-out: MRT(0–t)): 9 min
MRT inf ([1]; single dosage 20 mg/kg, read-out: MRT(0–∞)): 9.6 min
Vd ([1]; single dosage 20 mg/kg, read-out: Vz): 20.4 L/kg
curcumin released ([2]; at 24 h): 75%
curcumin released ([2]; within the first 8 h): About 60%
expression of the proliferative marker proteins p-MEK1/2 and p-ERK1/2 (p-MEK1/2 and p-Erk1/2): significantly low expression
IC50 (MC-38 cells): 13.7 µg/mL
